Assay results as given in the supplement of paper PMC10307832.

Tests used:
Assay in all cases: relative viability (nuclei count vs DMSO), 5 days (fraction); higher = more cells survive
[1] = compound: CC1=NN=C(O1)C2=NN=C(C=C2)N3CCC(CC3)OC4=C(C=CC(=C4)F)Cl + CC1(C)CCC(c2ccc(Cl)cc2)=C(CN2CCN(c3ccc(C(=O)NS(=O)(=O)c4ccc(N[C@H](CCN5CCOCC5)CSc5ccccc5)c(S(=O)(=O)C(F)(F)F)c4)cc3)CC2)C1 [Navitoclax] (partner 0.5 µM)
How it was run: (§1)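 After 5 days of treatment, lung cancer cells in 1536-well plates were fixed and stained in a single step (final 0.05% Triton X-100, 1% formaldehyde, 1 ug/ml Hoechst) and their nuclei counted on 4× images. Treatment had been applied by pin tool the day after seeding as one drug alone or as a fixed anchor-drug dose with five library-drug doses (not always all listed) in √10 steps. Relative viability is the nuclei count of treated wells divided by that of vehicle wells, and values are medians of duplicate plates.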

[2] = compound: CC1=NN=C(O1)C2=NN=C(C=C2)N3CCC(CC3)OC4=C(C=CC(=C4)F)Cl + Nc1ncn([C@H]2C[C@H](O)[C@@H](CO)O2)c(=O)n1 [Decitabine] (partner 2 µM)
How it was run: as §1

Tosedostat + Foretinib = compound: CC(C)C[C@@H](C(=O)N[C@H](C(=O)OC1CCCC1)c1ccccc1)[C@H](O)C(=O)NO [Tosedostat] + COc1cc2c(Oc3ccc(NC(=O)C4(C(=O)Nc5ccc(F)cc5)CC4)cc3F)ccnc2cc1OCCCN1CCOCC1 [Foretinib] (partner 0.25 µM)
How it was run: as §1

Tosedostat + Decitabine = compound: CC(C)C[C@@H](C(=O)N[C@H](C(=O)OC1CCCC1)c1ccccc1)[C@H](O)C(=O)NO [Tosedostat] + Nc1ncn([C@H]2C[C@H](O)[C@@H](CO)O2)c(=O)n1 [Decitabine] (partner 2 µM)
How it was run: as §1

| Cell Line | relative viability ([1]; first compound 0.253 µM) | relative viability ([1]; first compound 0.8 µM) | relative viability ([1]; first compound 2.53 µM) | relative viability ([1]; first compound 8 µM) | relative viability ([2]; first compound 0.253 µM) | relative viability ([2]; first compound 0.8 µM) | relative viability ([2]; first compound 2.53 µM) | relative viability ([2]; first compound 8 µM) | relative viability (Tosedostat + Foretinib; first compound 0.02 µM) | relative viability (Tosedostat + Foretinib; first compound 0.06325 µM) | relative viability (Tosedostat + Foretinib; first compound 0.2 µM) | relative viability (Tosedostat + Foretinib; first compound 0.6325 µM) | relative viability (Tosedostat + Foretinib; first compound 2 µM) | relative viability (Tosedostat + Decitabine; first compound 0.02 µM) | relative viability (Tosedostat + Decitabine; first compound 0.06325 µM) | relative viability (Tosedostat + Decitabine; first compound 0.2 µM) | relative viability (Tosedostat + Decitabine; first compound 0.6325 µM) | relative viability (Tosedostat + Decitabine; first compound 2 µM) |
| --- | --- | --- | --- | --- | --- | --- | --- | --- | --- | --- | --- | --- | --- | --- | --- | --- | --- | --- |
| NCI-H2347 | 0.643 | 0.533 | 0.62 | 0.532 | 0.544 | 0.593 | 0.568 | 0.471 | 0.711 | 0.731 | 1.04 | 0.955 | 0.969 | 0.64 | 0.609 | 0.667 | 0.444 | 0.542 |
| NCI-H2405 | 0.902 | 0.722 | 0.784 | 0.83 | 0.452 | 0.43 | 0.485 | 0.443 | 1.03 | 1.02 | 1.07 | 1.02 | 0.932 | 0.772 | 0.733 | 0.712 | 0.603 | 0.657 |
| NCI-H3122 | 0.564 | 0.612 | 0.691 | 0.46 | 0.376 | 0.31 | 0.412 | 0.281 | 1.01 | 0.901 | 1.01 | 0.967 | 1.07 | 0.497 | 0.524 | 0.447 | 0.411 | 0.418 |
| PC-3 [JPC-3] | 0.764 | 0.691 | 0.796 | 0.722 | 0.774 | 0.747 | 0.801 | 0.732 | 1.01 | 1.02 | 0.997 | 0.778 | 0.65 | 0.833 | 0.813 | 0.872 | 0.768 | 0.555 |
| PC-14 | 0.742 | 0.717 | 0.719 | 0.702 | 0.19 | 0.226 | 0.177 | 0.23 | 0.948 | 0.936 | 0.987 | 0.868 | 0.912 | 0.218 | 0.177 | 0.146 | 0.0843 | 0.0753 |
| RERF-LC-KJ | 0.781 |  | 0.671 | 0.765 | 0.574 | 0.561 | 0.52 | 0.521 | 0.851 | 0.912 | 0.77 | 0.884 | 0.8 | 0.657 | 0.622 | 0.615 | 0.495 | 0.457 |
| SK-LU-1 | 0.765 | 0.957 | 0.706 | 0.531 | 0.667 | 0.517 | 0.595 | 0.557 | 0.975 | 0.724 | 0.662 | 0.792 | 0.652 | 0.624 | 0.651 | 0.563 | 0.471 | 0.454 |
| SK-MES-1 | 0.995 | 1.04 | 1.03 | 0.929 | 0.369 | 0.388 | 0.356 | 0.326 | 0.691 | 0.889 | 0.914 | 0.873 | 0.86 | 0.356 | 0.372 | 0.325 | 0.273 | 0.346 |
| SW 1573 | 1.03 | 0.84 | 0.851 | 0.922 | 0.517 | 0.471 | 0.482 | 0.378 | 0.877 | 0.906 | 0.924 | 0.825 | 0.974 | 0.675 | 0.504 | 0.482 | 0.451 | 0.415 |
| UMC-11 | 0.287 | 0.344 | 0.315 | 0.317 | 0.517 | 0.517 | 0.507 | 0.466 | 1.22 | 0.969 | 1.02 | 1.09 | 1.03 | 0.687 | 0.575 | 0.801 | 0.568 | 0.587 |
